Data published in ChEMBL document CHEMBL1126306, “Inactivation of calpain by peptidyl fluoromethyl ketones” (J Med Chem, 1992).
Where a SMILES comes first, the peptide text is derived from it.

Experiment: The rate of inactivation expressed as second-order rate constant is independent of concentration.
Conditions: for kinact/KI: read-out: k2

| Structure (SMILES) | k2 [M⁻¹ s⁻¹] | kinact/KI [M⁻¹ s⁻¹] |
| --- | --- | --- |
| CC(C)C[C@H](NC(=O)OCc1ccccc1)C(=O)N[C@@H](Cc1ccc(O)cc1)C(=O)CF (HELM PEPTIDE1{[O=C(OCc1ccccc1)[*:2]].L.Y.[FC[*:1]]}$$$$V2.0) | 12000 | 17000 |
| C[C@H](NC(=O)[C@H](Cc1ccc(O)cc1)NC(=O)OCc1ccccc1)C(=O)CF | – | 7.4e+06 |
